Experimental data: US20100086546A1, “Toll-LIke Receptor 4 Deficiency and Downstream Effectors Cause Pulmonary Emphysema” (Yale University, priority 2007, published 2010)

Columns and labels:
[1] = system: Tlr4−/− MLECs; experiment: Elastolytic activity in Tlr4−/− MLECs treated with DPI, NAC or apocynin; format: cell-based, mouse; conditions: DPI 10 μM, NAC 100 μM, apocynin 10 μM; 24 hours
Method: MLECs were isolated by as described by Kuhlencordt et al. (Kuhlencordt P. J., et al., 2004, Am. J. Physiol. Cell Physiol. 286:C1195C1202.), with some modifications. Briefly, lungs were extracted, minced, and digested for 1 hour at 37° C. with 0.1% collagenase (Roche Diagnostics) in RPMI-1640 with 100 U/ml penicillin G and 100 μg/ml streptomycin. The digest was passed through a 100-μm cell strainer to remove undigested tissue fragments. Cells were pelleted at 200 g for 5 minutes; resuspended in MLEC medium containing 20% FBS, 40% DMEM, and 40% F12 with 100 U/ml penicillin G and 100 μg/ml streptomycin; and plated onto 0.1% gelatin-coated T75 flasks. Cells were washed after 24 hours and cultured for 2-4 days. Cells were trypsinized with 2 ml trypsin/EDTA, PBS added, and spun for 5 minutes at 200 g to remove the supernatant. Cells were resuspended in 2% FBS containing 10 μl biotin-labeled rat anti-mouse CD31 (PECAM-1) antibody (BD Biosciences—Pharmingen). After incubation on ice for 30 minutes, the cells were washed with streptavidin magnetic beads (New England Biolabs Inc.). Cells were washed with 2% FBS, resuspended in 5 ml of 2% FBS, and incubated on ice for 30 minutes. The cells were then placed on the magnet for 5 minutes, and unbound cells were removed while bound cells were resuspended in medium and plated onto a 0.1% gelatin-coated T25 flask. CD31 staining and flow cytometry confirmed that greater than 95% of the cells were endothelial cells. […]
The elastolytic activities in lung tissues, BAL, and cell lysates was determined by hydrolysis of insoluble elastin and detected spectrophotometrically using elastin-Congo red as a substrate according to the method described previously (Rust L., et al., 1994, Methods Enzymol. 235:554-562). […] The optical density of the supernatant was measured at 485 nm with a DYNEX Revelation version 3.2 spectrophotometer. The elastolytic activity was calculated as ng elastase/μg protein in the lysates according to the standard curve established by the reaction of porcine elastase and elastin-Congo red.

[2] = system: elastase- and cigarette smoke-induced emphysema; conditions: aerosolized; cited from earlier work
[3] = system: Tlr4−/− mice; experiment: Total antioxidant capacity in BAL and serum of Tlr4−/− mice on antioxidant therapy; format: in vivo, mouse; conditions: NAC 1 g/kg or apocynin 3 mg/kg in drinking water from 3 weeks, sacrificed at 3 months; for total antioxidant content in serum: serum (data not shown)
Text: Tlr4^−/− and MyD88^−/− mice have been previously described (Zhang X., et al., 2005, J. Immunol. 175:4834-4838; Adachi O., et al., 1998, Immunity. 9:143-150; Hoshino K., et al., 1999, J. Immunol. 162:3749-3752). TLR4-deficient mouse lines C3H/HeJ and C57BL/10ScNJ and their respective controls were purchased from The Jackson Laboratory. C57BL/6J Tlr4^−/− mice were generated after greater than 10 generations of backcrossing onto a C57BL/6J background. WT littermates were used as controls. For antioxidant therapy, Tlr4^−/− mice were randomized into 3 groups at 3 weeks of age—NAC (1 g/kg body weight; Sigma-Aldrich) (apocynin (3 mg/kg body weight; Calbiochem; EMD Biosciences) (or vehicle-only drinking water—and then sacrificed at 3 months. Mice were maintained under specific pathogen-free conditions at the animal facility of Yale University School of Medicine. Animal protocols were reviewed and approved by the Animal Care and Use Committee at Yale University. Total antioxidant capacity was measured in cell-free BAL and serum using the Quantitative Assay for Total Antioxidant Potential kit (Oxis International Inc.) according to the manufacturer's instructions. […] Bathocuproine selectively forms a 2:1 complex with Cu^+, which has a maximum absorbance at 490 nm. A standard of a known uric acid concentration was used to create a calibration curve. Results are expressed as μM copper-reducing equivalents.

[4] = system: Tlr4−/− mice; experiment: Reduced GSH/oxidized GSH in BAL of Tlr4−/− mice on antioxidant therapy; format: in vivo, mouse; conditions: NAC 1 g/kg or apocynin 3 mg/kg in drinking water, 3 months
Text: (§1) Tlr4^−/− and MyD88^−/− mice have been previously described (Zhang X., et al., 2005, J. Immunol. 175:4834-4838; Adachi O., et al., 1998, Immunity. 9:143-150; Hoshino K., et al., 1999, J. Immunol. 162:3749-3752). TLR4-deficient mouse lines C3H/HeJ and C57BL/10ScNJ and their respective controls were purchased from The Jackson Laboratory. C57BL/6J Tlr4^−/− mice were generated after greater than 10 generations of backcrossing onto a C57BL/6J background. WT littermates were used as controls. For antioxidant therapy, Tlr4^−/− mice were randomized into 3 groups at 3 weeks of age—NAC (1 g/kg body weight; Sigma-Aldrich) (apocynin (3 mg/kg body weight; Calbiochem; EMD Biosciences) (or vehicle-only drinking water—and then sacrificed at 3 months. Mice were maintained under specific pathogen-free conditions at the animal facility of Yale University School of Medicine. Animal protocols were reviewed and approved by the Animal Care and Use Committee at Yale University. The ratio of reduced GSH to oxidized GSH was measured in cell-free BAL using GSH/GSSG-412 kit (Oxis International Inc.) according to the manufacturer's instructions.

[5] = system: Tlr4−/− mice; experiment: Emphysema (lung volume, chord length, histology) in Tlr4−/− mice on antioxidant therapy; format: in vivo, mouse; conditions: NAC 1 g/kg or apocynin 3 mg/kg in drinking water from 3 weeks, sacrificed at 3 months
Text: as §1, with “University. Mice were anesthetized, the trachea was cannulated, and the lungs were removed and inflated with PBS at 25 cm H2O.” for “University.”, “The size” for “The ratio”, “of the lung” for “of reduced GSH to oxidized GSH”, “was evaluated by volume displacement. Hematoxylin and eosin (H&E) or periodic acid-Schiff with diastase (PAS) staining was performed after pressure fixation with Streck solution (Streck Laboratories)” for “was measured”, “in” for “in cell-free BAL using GSH/GSSG-412 kit (Oxis International Inc.) according to”, “the Research Pathology Laboratory at Yale University. […]” for “the manufacturer's instructions.”

[6] = system: Tlr4−/− mice; experiment: Elastase inhibitory capacity (EIC) in Tlr4−/− mice on antioxidant therapy; format: in vivo, mouse; conditions: NAC 1 g/kg or apocynin 3 mg/kg in drinking water, BAL, 3 months
Text: Tlr4^-/- and MyD88^-/- mice have been previously described (Zhang X., et al., 2005, J. Immunol. 175:4834-4838; Adachi O., et al., 1998, Immunity. 9:143-150; Hoshino K., et al., 1999, J. Immunol. 162:3749-3752). TLR4-deficient mouse lines C3H/HeJ and C57BL/10ScNJ and their respective controls were purchased from The Jackson Laboratory. C57BL/6J Tlr4^-/- mice were generated after greater than 10 generations of backcrossing onto a C57BL/6J background. WT littermates were used as controls. For antioxidant therapy, Tlr4^-/- mice were randomized into 3 groups at 3 weeks of age-NAC (1 g/kg body weight; Sigma-Aldrich) (apocynin (3 mg/kg body weight; Calbiochem; EMD Biosciences) (or vehicle-only drinking water-and then sacrificed at 3 months. Mice were maintained under specific pathogen-free conditions at the animal facility of Yale University School of Medicine. Animal protocols were reviewed and approved by the Animal Care and Use Committee at Yale University. EIC was assessed in BAL and serum using previously described methods (Klumpp T. et al., 1979, Clin. Chem. 25:969-97; […]., et al., 2001, Am. J. Respir. Crit. Care Med. 164:886-890). […] EICs against PPE (type III; Sigma-Aldrich) in BAL and serum were determined using succinyl-[…]-nitroanilide (SAPNA; Sigma-Aldrich) as the elastase substrate. EIC was expressed as percentage of enzyme activity inhibited by serum or BAL samples. […]

Compound | elastolytic activity in Tlr4−/− MLECs [1] | protection against emphysema [2] | total antioxidant content in BAL [3] | total antioxidant content in serum [3] | GSH levels (reduced GSH/oxidized GSH ratio) [4] | TLR4-mediated emphysema (lung volume, mean linear chord length, histology) [5] | EIC [6]
c1ccc2c(c1)[I+]c1ccccc1-2 [DPI, diphenylene iodonium] | reversed to levels achieved by the broad-acting antioxidant NAC | – | – | – | – | – | –
Hyaluronan [HA] | – | protects against elastase- and cigarette smoke-induced emphysema | – | – | – | – | –
CC(=O)N[C@@H](CS)C(=O)O [NAC] | reversed | – | increased the total antioxidant content in BAL | increased the total antioxidant content | increased GSH levels | prevented TLR4-mediated emphysema | an increase in the EIC
COc1cc(C(C)=O)ccc1O [apocynin] | reversed to levels achieved by the broad-acting antioxidant NAC | – | increased the total antioxidant content in BAL | increased the total antioxidant content | increased GSH levels | prevented TLR4-mediated emphysema | an increase in the EIC
